Test results from article PMC12479633, “A Phase IIa, Single-Blind, Placebo-Controlled, Parallel-Group Study to Assess Safety, Tolerability, and Pharmacokinetics/Pharmacodynamics of Brensocatib in Adults with Cystic Fibrosis” (Clinical Pharmacokinetics, 2025).
Several values for one entry are separate records, joined by “and”; a condition that tells them apart may be missing. Equal entries are not always repeated. Where two headings read alike, the source gives them in different places. Marks after values point to notes of the source that are not given here.

Columns and labels:
[1] = tested on: neutrophil elastase (NE); set-up: method as in PMID 32897034; conditions: NCFBE, cited from earlier work
[2] = tested on: neutrophil elastase (NE); assay: NE activity in sputum of adults with CF; type: in vivo, human
Description: If a participant experienced an intercurrent event, defined as use of antibiotics during an acute event that could influence NSP levels, the data were not included in the PD analysis. In assessing treatment-emergent adverse events (TEAEs), the “while-on-treatment” strategy was implemented, which encompassed the 28-day period following the final dose of study drug. With this strategy, data collected prior to the occurrence of the intercurrent event, that is, to discontinuation of brensocatib, were included in the analysis.
On the basis of the comparability of PK between participants with and without concomitant use of CFTR modulators, NSP activity (NE, CatG, PR3) in blood and sputum was analyzed using the combined data sets without the CFTR modulator stratum.

[3] = set-up: method as in PMID 39574348; conditions: single dose, cited from earlier work
[4] = tested on: P-glycoprotein (P-gp); set-up: method as in PMID 35411669; conditions: cited from earlier work
[5] = Plasma pharmacokinetics of brensocatib in adults with CF, once-daily oral dosing for 28 days (noncompartmental analysis); type: in vivo, human; conditions: for Ctrough / CL/F / Cmax / Rac(AUC0–24), accumulation ratio based on AUC0–24 / Rac(Cmax), accumulation ratio based on Cmax / AUC(0-t): mean (CV%); for least squares geometric mean ratio (LSGMR) in AUC0–24 (90% CI) / least squares geometric mean ratio (LSGMR) in Cmax (90% CI): day 28; for AUC0–24 / D, geometric mean / AUClast / D, geometric mean / Cmax / D, geometric mean: dose-normalized; for AUC(0-t): human, plasma, oral, 10 mg
Description: This was a phase IIa, single-blind, randomized, placebo-controlled trial with a parallel-group, multiple-dose design aimed at evaluating the PK, PD, safety, and tolerability of brensocatib in adults with CF (NCT05090904).
Participants were assigned to receive a once-daily dose of brensocatib (10 mg, 25 mg, or 40 mg) or placebo for 28 days.
Plasma PK samples were collected on days 1 (at predose and 0.5, 1, 2, 4, 6, 8, and 24 h postdose), 14 (at predose and 2 h postdose), and 28 (at predose and 0.5, 1, 2, 4, 6, 8, 24, and 168 h postdose). The concentration of brensocatib in the plasma samples was analyzed using a validated liquid chromatography with tandem mass spectrometry method at an external service provider with a quantification range of 0.25–150 ng/mL. The overall intra- and inter-batch precision and accuracy were −2.7 to 2.0% and −1.8 to 0.8%, respectively. The long-term stability was established in human plasma for 346 days at −70 °C. The validation method details were published internally and stored within Insmed’s internal document repository.
Descriptive statistics for continuous variables were calculated. Categorical variables were summarized by counts and by percentage of participants in the corresponding categories. No formal hypothesis was tested. Changes from baseline values were calculated and presented for both safety and efficacy data at each visit, including the percent change from baseline. PK parameters for brensocatib were assessed using noncompartmental analysis via Phoenix® WinNonlin® version 8.2 or later. SAS version 9.4 or higher was employed to prepare PK outputs.
Analysis of dose dependency for brensocatib Cmax, AUC0–24, and area under the concentration–time curve from time 0 to last measurable concentration (AUClast) after single-dose administration and at steady state (day 28) were performed using a power law model. Dose normalization of Cmax, AUC0–24, and AUClast was performed only when a linear and dose-dependent trend was observed.

[6] = Day 1, with CFTR modulator, n 17
[7] = Day 1, without CFTR modulator, n 7
[8] = Day 28, with CFTR modulator, n 16
[9] = Day 28, without CFTR modulator, n 6

Cn1c(=O)oc2ccc(-c3ccc(C[C@@H](C#N)NC(=O)[C@@H]4CNCCCO4)cc3)cc21 [Brensocatib]
Median % reduction of NE activity in the blood ([1]; 10 mg, n = 38): 30.9% and 30.9 (n = 38) % | Median % reduction of NE activity in the blood ([1]; 25 mg, n = 45): 66.5% and 66.5 (n = 45) % | NE, median % reduction relative to baseline ([2]; 10 mg QD, day 29, n = 5): 40.7 (n = 5) % | NE, median % reduction relative to baseline ([2]; 25 mg QD, day 29, n = 3): 77.8 (n = 3) % | NE, median % reduction relative to baseline ([2]; 40 mg QD, day 29, n = 2): 69.9 (n = 2) % | tolerability ([3]; adults with varying degrees of renal impairment): well tolerated | effect of renal impairment on brensocatib elimination and exposure [3]: not significantly affected | substrate status [4]: substrate | Ctrough ([5]; 10 mg QD, Day 1 column, presented for day 2, n = 8): 46.3 (92.2) ng/mL | CL/F ([5]; 10 mg QD, Day 28, n = 8): 9.91 (28.6) L/h | Cmax ([5]; 10 mg QD, Day 28, n = 8): 90.1 (31.0) ng/mL | Ctrough ([5]; 10 mg QD, Day 28, n = 8): 27.2 (66.1) ng/mL | Rac(AUC0–24), accumulation ratio based on AUC0–24 ([5]; 10 mg QD, Day 28, n = 8): 1.38 (32.2) | Rac(Cmax), accumulation ratio based on Cmax ([5]; 10 mg QD, Day 28, n = 8): 1.42 (22.6) | Cmax ([5]; 25 mg QD, Day 1, n = 8): 140 (24.1) ng/mL | Ctrough ([5]; 25 mg QD, Day 1 column, presented for day 2, n = 8): 39.3 (30.4) ng/mL | CL/F ([5]; 25 mg QD, Day 28, n = 7): 7.17 (30.1) L/h | Rac(AUC0–24), accumulation ratio based on AUC0–24 ([5]; 25 mg QD, Day 28, n = 7): 2.26 (29.2) | Rac(Cmax), accumulation ratio based on Cmax ([5]; 25 mg QD, Day 28, n = 7): 1.72 (38.9) | Ctrough ([5]; 25 mg QD, Day 28, n = 8): 104 (43.6)^d ng/mL | Ctrough ([5]; 40 mg QD, Day 1 column, presented for day 2, n = 8): 108 (88.6) ng/mL | CL/F ([5]; 40 mg QD, Day 28, n = 8): 7.20 (42.8) L/h | Ctrough ([5]; 40 mg QD, Day 28, n = 8): 162 (41.8) ng/mL | Rac(AUC0–24), accumulation ratio based on AUC0–24 ([5]; 40 mg QD, Day 28, n = 8): 1.81 (37.4) | Rac(Cmax), accumulation ratio based on Cmax ([5]; 40 mg QD, Day 28, n = 8): 1.43 (25.5) | least squares geometric mean ratio (LSGMR) in AUC0–24 (90% CI) ([5]; 40-mg dose compared to 10 mg): 1.42 (1.04–1.92) | least squares geometric mean ratio (LSGMR) in Cmax (90% CI) ([5]; 40-mg dose compared to 10 mg): 1.36 (1.02–1.82) | least squares geometric mean ratio (LSGMR) in AUC0–24 (90% CI) ([5]; 40-mg dose compared to 25 mg): 1.02 (0.74–1.41) | least squares geometric mean ratio (LSGMR) in Cmax (90% CI) ([5]; 40-mg dose compared to 25 mg): 1.25 (0.92–1.69) | AUClast / D, ratio with/without CFTR modulator (90% CI) ([5]; Day 1, geometric mean ratio): 1.21 (0.91–1.60) | AUC0–24 / D, geometric mean [5, 6]: 80.7 ng·h/mL/mg | AUClast / D, geometric mean [5, 6]: 80.7 ng·h/mL/mg | Cmax / D, geometric mean [5, 6]: 6.7 ng/mL/mg | AUC0–24 / D, geometric mean [5, 7]: 66.8 ng·h/mL/mg | AUClast / D, geometric mean [5, 7]: 66.8 ng·h/mL/mg | Cmax / D, geometric mean [5, 7]: 6.3 ng/mL/mg | AUC0–24 / D, ratio with/without CFTR modulator (90% CI) ([5]; Day 28, geometric mean ratio): 1.12 (0.82–1.52) | AUC0–24 / D, geometric mean [5, 8]: 134.2 ng·h/mL/mg | AUClast / D, geometric mean [5, 8]: 295.1 ng·h/mL/mg | Cmax / D, geometric mean ([5]; Day 28, with CFTR modulator, n = 17): 10.2^a ng/mL/mg | AUC0–24 / D, geometric mean [5, 9]: 120.2 ng·h/mL/mg | AUClast / D, geometric mean [5, 9]: 271.3 ng·h/mL/mg | Cmax / D, geometric mean [5, 9]: 8.8 ng/mL/mg | inter-participant variability (coefficient of variation) in Cmax, AUC0–24 and t1/2 ([5]; generally within): 15–50% | AUC(0-t) ([5]; 10 mg QD, Day 1, n = 8, read-out: AUC0–24): 879 ng·h/mL | AUC(0-t) ([5]; 10 mg QD, Day 1, n = 8, read-out: AUClast): 879 ng·h/mL
